These results are taken from patent US12247106B2, “Onium-functionalized siloxanes” (Henkel AG & Co. KGaA, priority 2019, dated 2025).

What all share (experiment): Kirby-Bauer Test (Zone of Inhibition), agar diffusion
What all share (type): cell-based
On the technique in general: A growth-free zone around the sample is the usual read-out of agar diffusion tests.

Experiment [1] relates to Aspergillus brasiliensis (ATCC 16404). The protocol: (§1) Kirby-Bauer Test (Zone of Inhibition):
(§2) The Kirby-Bauer Test is also known as Agar Diffusion Test and can be used for determination of antimicrobial activity in combination with diffusion properties. […] A suspension of the bacterial or fungal strain of interest is spread evenly over the face of a sterile agar plate. The antimicrobial test substrate (preferential liquid aggregation state) is applied to the center of the agar plate onto a small filter paper. The agar plate is incubated for a defined time at a temperature suitable for the test microorganisms. If the test substrate leaches from the filter paper into the agar and it further contains antimicrobial activity, a zone of inhibition is formed around the filter paper.

In experiment [2] the test system is Staphylococcus aureus (ATCC 6538). The protocol:
as §1, §2

Experiment [3] has as its system Exophiala dermatitidis (isolate). The protocol: as §1, §2
[4] abbreviates: dilution ratio 1:10, maximum 45 mm.
The mark [5] stands for this setting: dilution ratio 1:100, maximum 45 mm.

On to `c1ccncc1` [Pyridine], for which the “Zone of Inhibition” value in experiment [1] (setting [4]) worked out at 0.0 mm; in experiment [1] (setting [5]), 0.0 mm; in experiment [1] (undiluted, maximum 45 mm), 0.0 mm; in experiment [2] (setting [4]), 0.0 mm; in experiment [2] (setting [5]), 0.0 mm; in experiment [2] (undiluted, maximum 45 mm), 1.0 mm. Also, the “Zone of Inhibition” value in experiment [3] (setting [4]) worked out at 0.0 mm; in experiment [3] (setting [5]) it was 0.0 mm; in experiment [3] (undiluted, maximum 45 mm), 1.0 mm.

On to `CCCCn1ccnc1` [1-Butyl-1H-imidazole], for which the “Zone of Inhibition” value in experiment [1] (undiluted, maximum 45 mm) came out at 5.0 mm; in experiment [2] (undiluted, maximum 45 mm), 11.0 mm; in experiment [3] (undiluted, maximum 45 mm), 15.0 mm.

As for `Cn1ccnc1` [1-methyl-1H-imidazole], the “Zone of Inhibition” value in experiment [1] (setting [4]) worked out at 0.0 mm; in experiment [1] (setting [5]) it was 0.0 mm; in experiment [1] (undiluted, maximum 45 mm), 3.5 mm; in experiment [2] (setting [4]), 0.0 mm; in experiment [2] (setting [5]), 0.0 mm; in experiment [2] (undiluted, maximum 45 mm), 6.5 mm. The “Zone of Inhibition” value is recorded as 0.0 mm in experiment [3] (setting [4]); 0.0 mm in experiment [3] (setting [5]); 12.3 mm in experiment [3] (undiluted, maximum 45 mm).
